Experimental data published in patent publication US20250205182A1, “COMPOSITIONS AND METHODS FOR IMPROVING GUT PERMEABILITY” (BRIGHTSEED, INC., priority 2022, published 2025).
Entries after “also recorded” stand apart in the source; their conditions may differ.

Tested on: human transverse colon epithelial cells
Test: Transepithelial electrical resistance (TEER) of transverse colon monolayers treated with TNFα
Type: cell-based
Details: for change in TEER as a result of TNF administration: with TNFα, 10, 20, 40 μM, after 48 hours, relative to t=0; for TEER: with TNF
Source text: Cell Information: Donor 5 Transverse Colon, HISC-0033, Passage 10. Plated onto 4×96-well RepliGut® transwell plates coated with thin hydrogel coating. 2× RepliGut® transwell plates had 1.0 μm pore size (Corning 3380) and 2× RepliGut® transwell plates had 0.4 μm pore size (Corning 7369).
Compound Information: TNFα was supplied by Allis Biosystems and reconstituted according to the manufacturer's instructions. All other compounds were provided by Brightseed in DMSO (Table 1). Stocks were created for each treatment (Table 2) so that the final concentration of an individual compound in the culture media was 0.1% media volume for all compounds.
Proliferative human transverse colon epithelial cells were plated in Altis Expansion media using Altis-established protocols onto 4×96-well RepliGut® transwell plates coated with a thin layer of hydrogel. Cultures were monitored every day using a bright field microscope. Transverse colon epithelial monolayers became confluent on Day 4, at which point media was changed to Altis Differentiation media. The cells were cultured for an additional 2 days. Brightseed compounds and TNFα, listed in Table 2, were diluted in Altis Differentiation media, mixed well, and added to apical and basal compartment of transwell cultures at t=0 hours. All conditions were performed in triplicate. Cells were treated with compounds for a total of 48 hours.
Transepithelial electrical resistance was measured in all transwell cultures at t=0 hours prior to the addition of compounds to determine baseline TEER using an Epithelial Volt/Ohm Meter (World Precision Instruments, EVOM2) and STX100C96 Electrode. TEER was also measured at t=24 hours, t=45 hours, and t=48 hours. The surface area of a 96-well transwell is 0.143 cm^2 per well. Corrected TEER was calculated using the formula below.
(Raw measured TEER of sample transwell−Raw measured TEER of blank transwell)×Surface Area
Statistical analysis was performed using GraphPad Prism software version 9.4.1 (GraphPad Inc., La Jolla, CA, USA). Two-way ANOVA of means from n=3 samples per group was performed to measure simple effects within treatment groups. Tukey's range test was performed to correct for multiple comparisons. Differences between the groups were considered significant at p<0.05.

[1] = FIGS. 1-12 (TEER and permeability)

SMILES	optimal concentration of the study [1] [µM]	rank of effect among the test articles [1]	change in TEER as a result of TNF administration	change in TEER as a result of TNF administration (listed as NCT)	TEER (10 μM)	TEER (20 and 40 μM)	change in TEER as a result of TNF administration (listed as NFT)
O=C(/C=C/c1ccc(O)c(O)c1)NCCc1ccc(O)cc1 [Compound 1, N-trans-caffeoyltyramine]	40	greatest effect	dose-dependent and statistically significant reversal of this decrease	improved the change in TEER as a result of TNF administration in a dose-dependent manner; also recorded: protected against (a) decreased TEER	–	–	–
COc1cc(/C=C/C(=O)NCCc2ccc(O)cc2)ccc1O [Compound 2, N-trans-feruloyltyramine]	–	–	dose-dependent and statistically significant reversal of this decrease	–	improved TEER	did not show the same dose-dependent effect	protected against (a) decreased TEER
